Source: ChEMBL document CHEMBL1133531, “Carbonic anhydrase inhibitors: perfluoroalkyl/aryl-substituted derivatives of aromatic/heterocyclic sulfonamides as topical intraocular pressure-lowering agents with prolonged duration of action” (J Med Chem, 2000)
Values after ≈ are worked out from the molar mass of the structure shown.

Columns and labels:
[1] = organism: Oryctolagus cuniculus
Description: In vitro transcorneal accession rate in rabbit corneal intact epithelium

[2] = organism: Oryctolagus cuniculus; remark: listed apart in the source
Description: In vitro transcorneal accession rate in rabbit corneal denuded epithelium

[3] = octanol/water
Description: Partition coefficient (logD) (chloroform/buffer)

[4] = target: Carbonic anhydrase 1 (Homo sapiens, UniProt P00915)
Sequence of Carbonic anhydrase 1 (P00915 whole entry): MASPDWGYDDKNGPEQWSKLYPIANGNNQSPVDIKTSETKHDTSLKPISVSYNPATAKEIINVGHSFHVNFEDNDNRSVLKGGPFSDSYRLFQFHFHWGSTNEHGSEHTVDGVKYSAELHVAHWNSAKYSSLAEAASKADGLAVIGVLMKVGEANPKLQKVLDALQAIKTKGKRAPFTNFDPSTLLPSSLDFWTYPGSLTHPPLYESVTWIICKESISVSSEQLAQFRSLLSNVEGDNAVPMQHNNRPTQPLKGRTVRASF
Description: Inhibition of human recombinant carbonic anhydrase I (CA1)

[5] = target: T1, Carbonic anhydrase 4 (Bos taurus, UniProt Q95323)
T1 sequence (Q95323 whole entry): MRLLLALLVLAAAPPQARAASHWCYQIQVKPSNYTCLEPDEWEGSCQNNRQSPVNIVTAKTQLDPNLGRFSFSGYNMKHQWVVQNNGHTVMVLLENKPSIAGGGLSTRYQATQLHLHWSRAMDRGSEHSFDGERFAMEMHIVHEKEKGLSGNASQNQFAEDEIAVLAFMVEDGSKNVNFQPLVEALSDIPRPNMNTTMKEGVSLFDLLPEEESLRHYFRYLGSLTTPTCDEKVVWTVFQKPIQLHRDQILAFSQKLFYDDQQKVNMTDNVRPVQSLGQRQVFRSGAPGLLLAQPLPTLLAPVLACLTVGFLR
Description: Inhibition of bovine carbonic anhydrase IV (CA4) from bovine lung microsomes

[6] = Partition coefficient (logD) (chloroform-buffer); format: physicochemical
[7] = organism: Oryctolagus cuniculus; remark: listed apart in the source
Description: Tested for in vivo IOP-lowering of normotensive albino rabbits after topical administration at the specified interval (30 min) at pH 7

[8] = organism: Oryctolagus cuniculus; remark: listed apart in the source
Description: Tested for in vivo IOP-lowering of normotensive albino rabbits after topical administration at the specified interval (60 min) at pH 7

[9] = physchem; conditions: pH 7.4 buffer
Description: Tested for solubility in pH 7.4 buffer, at 25 Degree C

[10] = organism: Oryctolagus cuniculus; remark: listed apart in the source
Description: Tested for in vivo IOP-lowering of normotensive albino rabbits after topical administration at the specified interval (90 min) at pH 7

[11] = organism: Oryctolagus cuniculus; remark: listed apart in the source
Description: Tested for in vivo IOP-lowering of normotensive albino rabbits after topical administration at the specified interval (30 min) at pH 6.5

[12] = organism: Oryctolagus cuniculus; remark: listed apart in the source
Description: Tested for in vivo IOP-lowering of normotensive albino rabbits after topical administration at the specified interval (90 min) at pH 6.5

[13] = organism: Oryctolagus cuniculus; remark: listed apart in the source
Description: Tested for in vivo IOP-lowering of normotensive albino rabbits after topical administration at the specified interval (60 min) at pH 6.5

SMILES | Ki [4] | Ki [5] | also measured
CC(=O)/N=c1/sc(S(N)(=O)=O)nn1C [METHAZOLAMIDE] |  |  | Kin [1]: 1900 h⁻¹; Kin [2]: 13000 h⁻¹; logD [3]: 0.06
NS(=O)(=O)c1nnc(NS(=O)(=O)c2ccc(NC(=O)C(F)(F)C(F)(F)C(F)(F)C(F)(F)C(F)(F)C(F)(F)C(F)(F)C(F)(F)F)cc2)s1 | 600 nM | 13 nM | Kin [1]: 3.2 h⁻¹; Kin [2]: 8 h⁻¹; logD [6]: 1.436
NS(=O)(=O)c1nnc(NC(=O)c2c(F)c(F)c(F)c(F)c2F)s1 | 250 nM | 10 nM | Kin [1]: 4800 h⁻¹; Delta IOP [7]: 2.2 mmHg; Kin [2]: 10100 h⁻¹; Delta IOP [8]: 7.3 mmHg; logD [6]: 2.245; solubility [9]: 43 mM (≈ 16.1 mg/mL); Delta IOP [10]: 6.5 mmHg
NS(=O)(=O)c1nnc(NC(=O)CCNS(=O)(=O)c2c(F)c(F)c(F)c(F)c2F)s1 | 200 nM | 9 nM | Delta IOP [7]: 4 mmHg; Delta IOP [8]: 7.5 mmHg; Delta IOP [10]: 6.1 mmHg
NS(=O)(=O)c1nnc(NS(=O)(=O)C(F)(F)C(F)(F)C(F)(F)C(F)(F)F)s1 | 360 nM | 9 nM | Kin [1]: 4300 h⁻¹; Delta IOP [7]: 2.8 mmHg; Kin [2]: 7000 h⁻¹; Delta IOP [8]: 8.5 mmHg; logD [6]: 1.525; solubility [9]: 50 mM (≈ 23.1 mg/mL); Delta IOP [10]: 5.6 mmHg
Cn1nc(S(N)(=O)=O)sc1=NS(=O)(=O)C(F)(F)F | 2000 nM | 32 nM | Kin [1]: 3100 h⁻¹; Delta IOP [11]: 3.2 mmHg; Kin [2]: 4800 h⁻¹; Delta IOP [12]: 4.9 mmHg; Delta IOP [13]: 7.3 mmHg; logD [6]: 1.012; solubility [9]: 69 mM (≈ 22.5 mg/mL)
Cn1nc(S(N)(=O)=O)s/c1=N/C(=O)c1c(F)c(F)c(F)c(F)c1F | 270 nM | 8 nM | 
NS(=O)(=O)c1nc2ccc(OS(=O)(=O)C(F)(F)C(F)(F)C(F)(F)C(F)(F)C(F)(F)C(F)(F)C(F)(F)C(F)(F)F)cc2s1 | 28 nM | 8 nM | 
NS(=O)(=O)c1ccc(Nc2ccnc(NS(=O)(=O)C(F)(F)C(F)(F)C(F)(F)C(F)(F)F)n2)cc1 | 6000 nM | 30 nM | 
NS(=O)(=O)c1ccc(CNS(=O)(=O)C(F)(F)C(F)(F)C(F)(F)C(F)(F)F)cc1 | 13000 nM | 255 nM | 
NS(=O)(=O)c1cc(S(N)(=O)=O)c(NS(=O)(=O)C(F)(F)C(F)(F)C(F)(F)C(F)(F)F)cc1Cl | 400 nM | 43 nM | 
NS(=O)(=O)c1cccc(NC(=O)C(F)(F)C(F)(F)C(F)(F)C(F)(F)C(F)(F)C(F)(F)C(F)(F)C(F)(F)F)c1 | 1600 nM | 935 nM | 
NS(=O)(=O)c1nc2ccc(OCCOS(=O)(=O)C(F)(F)C(F)(F)C(F)(F)C(F)(F)C(F)(F)C(F)(F)C(F)(F)C(F)(F)F)cc2s1 | 17 nM | 5 nM | 
NS(=O)(=O)c1ccc(NS(=O)(=O)c2ccc(NS(=O)(=O)C(F)(F)F)cc2)cc1 | 4000 nM | 40 nM | 
NS(=O)(=O)c1cccc(NS(=O)(=O)c2ccc(NS(=O)(=O)c3c(F)c(F)c(F)c(F)c3F)cc2)c1 | 150 nM | 16 nM | 
NS(=O)(=O)c1ccc(NS(=O)(=O)c2c(F)c(F)c(F)c(F)c2F)c(I)c1 | 1760 nM | 675 nM | 
NS(=O)(=O)c1nc2ccc(NC(=O)C(F)(F)C(F)(F)C(F)(F)C(F)(F)C(F)(F)C(F)(F)C(F)(F)C(F)(F)F)cc2s1 | 45 nM | 9 nM | 
NS(=O)(=O)c1ccc(COS(=O)(=O)C(F)(F)C(F)(F)C(F)(F)C(F)(F)C(F)(F)C(F)(F)C(F)(F)C(F)(F)F)cc1 | 15000 nM | 10900 nM | 
NS(=O)(=O)c1ccc(CNC(=O)c2c(F)c(F)c(F)c(F)c2F)cc1 | 980 nM | 350 nM | 
NS(=O)(=O)c1nc2ccc(OS(=O)(=O)C(F)(F)C(F)(F)C(F)(F)C(F)(F)F)cc2s1 | 29 nM | 7 nM | 
NS(=O)(=O)c1ccc(NS(=O)(=O)C(F)(F)C(F)(F)C(F)(F)C(F)(F)F)c(I)c1 | 23400 nM | 1040 nM | 
Cn1nc(S(N)(=O)=O)s/c1=N/S(=O)(=O)c1ccc(NS(=O)(=O)c2c(F)c(F)c(F)c(F)c2F)cc1 | 21 nM | 9 nM | 
NS(=O)(=O)c1nnc(NS(=O)(=O)C(F)(F)C(F)(F)C(F)(F)C(F)(F)C(F)(F)C(F)(F)C(F)(F)C(F)(F)F)s1 | 400 nM | 12 nM | 
NS(=O)(=O)c1ccc(CCOS(=O)(=O)C(F)(F)C(F)(F)C(F)(F)C(F)(F)F)cc1 | 20900 nM | 9200 nM | 
NS(=O)(=O)c1ccccc1NC(=O)C(F)(F)C(F)(F)C(F)(F)C(F)(F)C(F)(F)C(F)(F)C(F)(F)C(F)(F)F | 1800 nM | 1500 nM | 
NS(=O)(=O)c1nc2ccc(OC(=O)c3c(F)c(F)c(F)c(F)c3F)cc2s1 | 105 nM | 9 nM | 

SMILES | Ki [4] | Ki [5] | also measured
NS(=O)(=O)c1ccc(NNS(=O)(=O)C(F)(F)C(F)(F)C(F)(F)C(F)(F)F)cc1 | 15000 nM | 600 nM | 
NS(=O)(=O)c1nc2ccc(NS(=O)(=O)c3c(F)c(F)c(F)c(F)c3F)cc2s1 | 41 nM | 5 nM | Delta IOP [7]: 3 mmHg; Delta IOP [8]: 8 mmHg; Delta IOP [10]: 6.6 mmHg
NS(=O)(=O)c1nc2ccc(OS(=O)(=O)C(F)(F)F)cc2s1 | 55 nM | 10 nM | 
NS(=O)(=O)c1ccccc1NS(=O)(=O)C(F)(F)F | 175000 nM | 97000 nM | 
NS(=O)(=O)c1ccccc1NS(=O)(=O)C(F)(F)C(F)(F)C(F)(F)C(F)(F)C(F)(F)C(F)(F)C(F)(F)C(F)(F)F | 1500 nM | 1200 nM | 
NS(=O)(=O)c1ccc(Nc2ccnc(NS(=O)(=O)C(F)(F)C(F)(F)C(F)(F)C(F)(F)C(F)(F)C(F)(F)C(F)(F)C(F)(F)F)n2)cc1 | 4500 nM | 34 nM | 
NS(=O)(=O)c1ccc(CCOS(=O)(=O)C(F)(F)C(F)(F)C(F)(F)C(F)(F)C(F)(F)C(F)(F)C(F)(F)C(F)(F)F)cc1 | 22000 nM | 12300 nM | 
NS(=O)(=O)c1ccc(Nc2ccnc(NS(=O)(=O)C(F)(F)F)n2)cc1 | 8000 nM | 39 nM | 
NS(=O)(=O)c1ccc(NS(=O)(=O)c2ccc(NS(=O)(=O)C(F)(F)C(F)(F)C(F)(F)C(F)(F)F)cc2)cc1 | 3600 nM | 31 nM | 
NS(=O)(=O)c1cc(S(N)(=O)=O)c(NS(=O)(=O)c2c(F)c(F)c(F)c(F)c2F)cc1Cl | 300 nM | 26 nM | 
NS(=O)(=O)c1ccc(CCOC(=O)c2c(F)c(F)c(F)c(F)c2F)cc1 | 1250 nM | 400 nM | 
NS(=O)(=O)c1cccc(NS(=O)(=O)C(F)(F)C(F)(F)C(F)(F)C(F)(F)F)c1 | 18400 nM | 590 nM | 
NS(=O)(=O)c1ccc(NS(=O)(=O)C(F)(F)F)c(F)c1 | 100000 nM | 29000 nM | 
NS(=O)(=O)c1nnc(NS(=O)(=O)c2ccc(NS(=O)(=O)C(F)(F)C(F)(F)C(F)(F)C(F)(F)F)cc2)s1 | 900 nM | 17 nM | 
NS(=O)(=O)c1ccc(NS(=O)(=O)C(F)(F)C(F)(F)C(F)(F)C(F)(F)F)cc1 | 15200 nM | 480 nM | 
NS(=O)(=O)c1ccc(NS(=O)(=O)c2ccc(NC(=O)C(F)(F)C(F)(F)C(F)(F)C(F)(F)C(F)(F)C(F)(F)C(F)(F)C(F)(F)F)cc2)cc1 | 2400 nM | 25 nM | 
NS(=O)(=O)c1ccc(NC(=O)C(F)(F)C(F)(F)C(F)(F)C(F)(F)C(F)(F)C(F)(F)C(F)(F)C(F)(F)F)c(F)c1 | 1400 nM | 550 nM | 
NS(=O)(=O)c1nc2ccc(OCCOS(=O)(=O)c3c(F)c(F)c(F)c(F)c3F)cc2s1 | 18 nM | 7 nM | 
NS(=O)(=O)c1cccc(NS(=O)(=O)c2ccc(NS(=O)(=O)C(F)(F)F)cc2)c1 | 5000 nM | 45 nM | 
NS(=O)(=O)c1ccc(CNC(=O)C(F)(F)C(F)(F)C(F)(F)C(F)(F)C(F)(F)C(F)(F)C(F)(F)C(F)(F)F)cc1 | 1000 nM | 750 nM | 
NS(=O)(=O)c1nnc(NS(=O)(=O)c2ccc(NS(=O)(=O)c3c(F)c(F)c(F)c(F)c3F)cc2)s1 | 24 nM | 8 nM | 
NS(=O)(=O)c1nnc(NS(=O)(=O)c2ccc(NS(=O)(=O)C(F)(F)C(F)(F)C(F)(F)C(F)(F)C(F)(F)C(F)(F)C(F)(F)C(F)(F)F)cc2)s1 | 800 nM | 21 nM | Kin [1]: 4.1 h⁻¹; Kin [2]: 7.5 h⁻¹; logD [6]: 1.689
Cn1nc(S(N)(=O)=O)s/c1=N/C(=O)C(F)(F)C(F)(F)C(F)(F)C(F)(F)C(F)(F)C(F)(F)C(F)(F)C(F)(F)F | 330 nM | 18 nM | 
NS(=O)(=O)c1cc(S(N)(=O)=O)c(NS(=O)(=O)C(F)(F)C(F)(F)C(F)(F)C(F)(F)C(F)(F)C(F)(F)C(F)(F)C(F)(F)F)cc1Cl | 890 nM | 155 nM | 
NS(=O)(=O)c1nnc(NC(=O)CCNS(=O)(=O)C(F)(F)C(F)(F)C(F)(F)C(F)(F)F)s1 | 300 nM | 11 nM | 
